# Measured values: patent US7767659B2, “Synthesis of naturally occurring ecteinascidins and related compounds” (Pharma Mar, S.A., priority 2002, dated 2010)
# Like-named read-outs stand apart in the source and are kept apart here.
# Columns and labels:
# HT-29 = experiment: cells
# Summary of the method: (§1)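 Colorimetric SRB read (490 nm) on triplicate wells after 48 h at 37 °C, 5% CO2. Dose range 10 to 10^−8 μg/ml; 5×10^3 cells/well pre-attached 18 h.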
# LoVo = experiment: cells
# Summary of the method: as §1
# A-549 = experiment: cells
# Summary of the method: as §1
# IGROV-1 = experiment: Inhibition of cells growth by colorimetric assay (SRB)
# Summary of the method: as §1
# SK-MEL-28 = experiment: as above
# Summary of the method: as §1
# HeLa-APL = experiment: as above
# Summary of the method: as §1
# SK-BR-3 = experiment: as above
# Summary of the method: as §1
# LoVo-Dox = experiment: as above
# Summary of the method: as §1
# DU-145 = experiment: as above
# Summary of the method: as §1
# LNCaP = experiment: as above
# Summary of the method: as §1
# IGROV-ET = experiment: as above
# Summary of the method: as §1
# PANC-1 = experiment: as above
# Summary of the method: as §1
# K-562 = experiment: as above
# Summary of the method: as §1
# HeLa = experiment: as above
# Summary of the method: as §1
structure (smiles),measurement,setting,value
C=CCN1C2Cc3cc(C)c(OC)c(O)c3C1C1C3SCC(NC(=O)CC)C(=O)OCC(c4c5c(c(C)c(OC(C)=O)c43)OCO5)N1C2C#N (stereo not drawn) [compound 27],TGI HT29,"HT-29; HT29, SRB, 48 hours exposure",1.42E−06 Molar
same,GI50,"HT-29; read-out: GI50 HT29, HT29, SRB, 48 hours exposure",75.6 nM
same,CC50,"HT-29; read-out: LC50 HT29, HT29, SRB, 48 hours exposure",14200 nM
same,TGI LOVO,"LoVo; LOVO, SRB, 48 hours exposure",2.36E−07 Molar
same,GI50,"LoVo; read-out: GI50 LOVO, LOVO, SRB, 48 hours exposure",80.4 nM
same,CC50,"LoVo; read-out: LC50 LOVO, LOVO, SRB, 48 hours exposure",707 nM
same,TGI A549,"A-549; A549, SRB, 48 hours exposure",2.06E−07 Molar
same,GI50,"A-549; read-out: GI50 A549, A549, SRB, 48 hours exposure",62.6 nM
same,CC50,"A-549; read-out: LC50 A549, A549, SRB, 48 hours exposure",1890 nM
same,TGI IGROV,"IGROV-1; IGROV, SRB, 48 hours exposure",1.02E−07 Molar
same,GI50,"IGROV-1; read-out: GI50 IGROV, IGROV, SRB, 48 hours exposure",40.7 nM
same,CC50,"IGROV-1; read-out: LC50 IGROV, IGROV, SRB, 48 hours exposure",1020 nM
same,TGI MEL-28,"SK-MEL-28; MEL-28, SRB, 48 hours exposure",1.34E−07 Molar
same,GI50,"SK-MEL-28; read-out: GI50 MEL-28, MEL-28, SRB, 48 hours exposure",61.4 nM
same,CC50,"SK-MEL-28; read-out: LC50 MEL-28, MEL-28, SRB, 48 hours exposure",594 nM
same,TGI HELA-APL,"HeLa-APL; HELA-APL, SRB, 48 hours exposure",3.04E−07 Molar
same,GI50,"HeLa-APL; read-out: GI50 HELA-APL, HELA-APL, SRB, 48 hours exposure",95.1 nM
same,CC50,"HeLa-APL; read-out: LC50 HELA-APL, HELA-APL, SRB, 48 hours exposure",951 nM
same,TGI SK-BR3,"SK-BR-3; SK-BR3, SRB, 48 hours exposure",1.97E−07 Molar
same,GI50,"SK-BR-3; read-out: GI50 SK-BR3, SK-BR3, SRB, 48 hours exposure",55.8 nM
same,CC50,"SK-BR-3; read-out: LC50 SK-BR3, SK-BR3, SRB, 48 hours exposure",1050 nM
same,TGI LOVO-DOX,"LoVo-Dox; LOVO-DOX, SRB, 48 hours exposure",1.42E−05 Molar
same,GI50,"LoVo-Dox; read-out: GI50 LOVO-DOX, LOVO-DOX, SRB, 48 hours exposure",431 nM
same,CC50,"LoVo-Dox; read-out: LC50 LOVO-DOX, LOVO-DOX, SRB, 48 hours exposure",14200 nM
same,TGI DU145,"DU-145; DU145, SRB, 48 hours exposure",8.48E−07 Molar
same,GI50,"DU-145; read-out: GI50 DU145, DU145, SRB, 48 hours exposure",75.5 nM
same,CC50,"DU-145; read-out: LC50 DU145, DU145, SRB, 48 hours exposure",14200 nM
same,TGI LNCAP,"LNCaP; LNCAP, SRB, 48 hours exposure",6.46E−08 Molar
same,GI50,"LNCaP; read-out: GI50 LNCAP, LNCAP, SRB, 48 hours exposure",26.1 nM
same,CC50,"LNCaP; read-out: LC50 LNCAP, LNCAP, SRB, 48 hours exposure",261 nM
same,TGI IGROV-ET,"IGROV-ET; IGROV-ET, SRB, 48 hours exposure",3.87E−07 Molar
same,GI50,"IGROV-ET; read-out: GI50 IGROV-ET, IGROV-ET, SRB, 48 hours exposure",165 nM
same,CC50,"IGROV-ET; read-out: LC50 IGROV-ET, IGROV-ET, SRB, 48 hours exposure",915 nM
same,TGI PANC-1,"PANC-1; PANC-1, SRB, 48 hours exposure",1.45E−06 Molar
same,GI50,"PANC-1; read-out: GI50 PANC-1, PANC-1, SRB, 48 hours exposure",92.8 nM
same,CC50,"PANC-1; read-out: LC50 PANC-1, PANC-1, SRB, 48 hours exposure",14200 nM
same,TGI K562,"K-562; K562, SRB, 48 hours exposure",5.66E−08 Molar
same,GI50,"K-562; read-out: GI50 K562, K562, SRB, 48 hours exposure",21.7 nM
same,CC50,"K-562; read-out: LC50 K562, K562, SRB, 48 hours exposure",206 nM
same,TGI HELA,"HeLa; HELA, SRB, 48 hours exposure",2.75E−07 Molar
same,GI50,"HeLa; read-out: GI50 HELA, HELA, SRB, 48 hours exposure",97.8 nM
same,CC50,"HeLa; read-out: LC50 HELA, HELA, SRB, 48 hours exposure",786 nM
COC1=C(C)C(=O)C2=C(C1=O)[C@@H]1C3[C@@H]4SC[C@]5(NCCc6c5[nH]c5ccccc65)C(=O)OC[C@@H](c5c6c(c(C)c(OC(C)=O)c54)OCO6)N3[C@@H](O)[C@H](C2)N1C (stereo partly drawn) [ET-736-quinone],GI50,"HT-29; Homo sapiens, HT-29, 48 h, read-out: HT29 GI50",51.2 nM
same,CC50,"HT-29; Homo sapiens, HT-29, 48 h, read-out: HT29 LC50",13000 nM
same,IC (TGI),"HT-29; Homo sapiens, HT-29, 48 h, read-out: HT29 TGI",128 nM
same,GI50,"LoVo; Homo sapiens, LoVo, 48 h, read-out: LOVO GI50",265 nM
same,CC50,"LoVo; Homo sapiens, LoVo, 48 h, read-out: LOVO LC50",1300 nM
same,IC (TGI),"LoVo; Homo sapiens, LoVo, 48 h, read-out: LOVO TGI",596 nM
same,GI50,"A-549; Homo sapiens, A549, 48 h, read-out: A549 GI50",25.6 nM
same,CC50,"A-549; Homo sapiens, A549, 48 h, read-out: A549 LC50",109 nM
same,IC (TGI),"A-549; Homo sapiens, A549, 48 h, read-out: A549 TGI",52.9 nM
same,GI50,"IGROV-1; Homo sapiens, IGROV-1, 48 h, read-out: IGROV GI50",67.1 nM
same,CC50,"IGROV-1; Homo sapiens, IGROV-1, 48 h, read-out: IGROV LC50",735 nM
same,IC (TGI),"IGROV-1; Homo sapiens, IGROV-1, 48 h, read-out: IGROV TGI",215 nM
same,GI50,"SK-MEL-28; Homo sapiens, SK-MEL-28, 48 h, read-out: MEL-28 GI50",123 nM
same,CC50,"SK-MEL-28; Homo sapiens, SK-MEL-28, 48 h, read-out: MEL-28 LC50",718 nM
same,IC (TGI),"SK-MEL-28; Homo sapiens, SK-MEL-28, 48 h, read-out: MEL-28 TGI",300 nM
same,GI50,"HeLa-APL; Homo sapiens, 48 h, read-out: HELA-APL GI50",55.5 nM
same,CC50,"HeLa-APL; Homo sapiens, 48 h, read-out: HELA-APL LC50",111 nM
same,IC (TGI),"HeLa-APL; Homo sapiens, 48 h, read-out: HELA-APL TGI",78.4 nM
same,GI50,"SK-BR-3; Homo sapiens, SK-BR-3, 48 h, read-out: SK-BR3 GI50",5.33 nM
same,CC50,"SK-BR-3; Homo sapiens, SK-BR-3, 48 h, read-out: SK-BR3 LC50",192 nM
same,IC (TGI),"SK-BR-3; Homo sapiens, SK-BR-3, 48 h, read-out: SK-BR3 TGI",11.3 nM
same,GI50,"LoVo-Dox; Homo sapiens, 48 h, read-out: LOVO-DOX GI50",747 nM
same,CC50,"LoVo-Dox; Homo sapiens, 48 h, read-out: LOVO-DOX LC50",13000 nM
same,IC (TGI),"LoVo-Dox; Homo sapiens, 48 h, read-out: LOVO-DOX TGI",3280 nM
same,GI50,"DU-145; Homo sapiens, DU-145, 48 h, read-out: DU145 GI50",45.1 nM
same,CC50,"DU-145; Homo sapiens, DU-145, 48 h, read-out: DU145 LC50",129 nM
same,IC (TGI),"DU-145; Homo sapiens, DU-145, 48 h, read-out: DU145 TGI",76.3 nM
same,GI50,"LNCaP; Homo sapiens, LNCaP, 48 h, read-out: LNCAP GI50",24.8 nM
same,CC50,"LNCaP; Homo sapiens, LNCaP, 48 h, read-out: LNCAP LC50",79.9 nM
same,IC (TGI),"LNCaP; Homo sapiens, LNCaP, 48 h, read-out: LNCAP TGI",44.6 nM
same,GI50,"IGROV-ET; Homo sapiens, 48 h, read-out: IGROV-ET GI50",510 nM
same,CC50,"IGROV-ET; Homo sapiens, 48 h, read-out: IGROV-ET LC50",1200 nM
same,IC (TGI),"IGROV-ET; Homo sapiens, 48 h, read-out: IGROV-ET TGI",782 nM
same,GI50,"PANC-1; Homo sapiens, PANC-1, 48 h, read-out: PANC-1 GI50",394 nM
same,CC50,"PANC-1; Homo sapiens, PANC-1, 48 h, read-out: PANC-1 LC50",13000 nM
same,IC (TGI),"PANC-1; Homo sapiens, PANC-1, 48 h, read-out: PANC-1 TGI",957 nM
same,GI50,"K-562; Homo sapiens, K562, 48 h, read-out: K562 GI50",4.96 nM
same,CC50,"K-562; Homo sapiens, K562, 48 h, read-out: K562 LC50",105 nM
same,IC (TGI),"K-562; Homo sapiens, K562, 48 h, read-out: K562 TGI",13.7 nM
same,GI50,"HeLa; Homo sapiens, HeLa, 48 h, read-out: HELA GI50",3320 nM
same,CC50,"HeLa; Homo sapiens, HeLa, 48 h, read-out: HELA LC50",114 nM
same,IC (TGI),"HeLa; Homo sapiens, HeLa, 48 h, read-out: HELA TGI",6140 nM
